Results on one compound are retold here after US20170035894A1, “DRUG DELIVERY CONJUGATES FOR TREATING RESISTANT CANCER AND FOR USE IN COMBINATION THERAPY” (ENDOCYTE, INC., priority 2014, published 2017).

Experiment [1] deals with FR expressing cells (FR+) and cells that do not express FR (FR−). Put plainly: Selectivity for folate receptor expressing cells. The experiment is classed as cell-based, human.
Another experiment has as its system LU1147 NSCLC tumors. The experiment is described as follows: Huprime NSCLC PDX tumor model. The experiment is classed as in vivo, Balb/c nu/nu mice. Particulars: combined with Docetaxel (one dose of 15 mg/kg). The method, then: (§1) Female Balb/c nu/nu mice were fed ad libitum with folate-deficient chow (Harlan diet #TD01013) for the duration of the experiment. Primary human NSCLC models LU1147 or LU2505 fragments (2-4 mm in diameter) were inoculated subcutaneously at the right flank of each mouse. Mice were randomized into experimental groups of 7 mice and test articles were injected through the lateral tail vein under sterile conditions in a volume of 200 μL of phosphate-buffered saline (PBS). These studies were performed at Crown Bioscience (Beijing) Inc., Ground Floor, Light Muller Building, Changping Sector of Zhongguancun Scientific Park, No. 21 Huoju Road, Changping District, Beijing, P.R. China.
(§2) Growth of each s.c. tumor was followed by measuring the tumor two times per week until a volume of 1200 mm^3 was reached. Tumors were measured in two perpendicular directions using Vernier calipers, and their volumes were calculated as 0.5×L×W^2, where L=measurement of longest axis in mm and W=measurement of axis perpendicular to L in mm.

The subject of the next experiment is LU2505 NSCLC tumors. The experiment is described as follows: Huprime NSCLC PDX tumor model. The class given is in vivo, Balb/c nu/nu mice. The following applies: in combination with Docetaxel. How it is done:
as §1, §2

A further experiment deals with ST024 tumors. Put plainly: Ovarian PDX tumor model. The class given is in vivo, Balb/c nu/nu mice. The following applies: combined with Paclitaxel 15 mg/kg. How it is done: (§3) Female Balb/c nu/nu mice were fed ad libitum with folate-deficient chow (Harlan diet #TD01013) for the duration of the experiment. Primary human Endometrial model ST040, TNBC models 5T502 and ST738 and Ovarian model ST024 fragments (2-4 mm in diameter) were inoculated subcutaneously at the right flank of each mouse. Mice were randomized into 6 experimental groups of 5 or 3 mice each and test articles were injected through the lateral tail vein under sterile conditions in a volume of 200 μL of phosphate-buffered saline (PBS).
as §2

Another experiment relates to ST040 tumors. The experiment is described as follows: Endometrial PDX tumor model. The experiment is classed as in vivo, Balb/c nu/nu mice. Particulars: combined with Paclitaxel 15 mg/kg. The method, then:
as §3, §2

Experiment [2] concerns M109 (lung carcinoma) tumors. The experiment is described as follows: Inhibition of tumor growth, s.c. M109 tumors. The class given is in vivo, nu/nu mice. The method, then: METHOD. Inhibition of Tumor Growth in Mice. Four to seven week-old mice (Balb/c or nu/nu strains) were purchased from Harlan Sprague Dawley, Inc. (Indianapolis, Ind.). Normal rodent chow contains a high concentration of folic acid (6 mg/kg chow); accordingly, test animals were maintained on a folate-free diet (Harlan diet #TD00434) for about 1 week before tumor implantation to achieve serum folate concentrations close to the range of normal human serum, and during the Method. For tumor cell inoculation, 1×10^6 M109 cells (a syngeneic lung carcinoma) in Balb/c strain, or 1×10^6 KB cells in nu/nu strain, in 100 μL were injected in the subcutis of the dorsal medial area (right axilla). Tumors were measured in two perpendicular directions every 2-3 days using a caliper, and their volumes were calculated as 0.5×L×W^2, where L=measurement of longest axis in mm and W=measurement of axis perpendicular to L in mm.
Test animals (5/group) ere injected i.v., generally three times a week TIW), for 3 weeks with varying doses, such as with 1 μmol/kg to 5 μmol/kg, of the drug delivery conjugate or with an equivalent dose volume of PBS (control), unless otherwise indicated. Dosing solutions were prepared fresh each day in PBS and administered through the lateral tail vein of the mice.

Where [3] appears, read: EC1456 2 μmol/kg two times a week for two weeks.
Where [4] appears, read: EC1456 4 μmol/kg once a week for two weeks.
[5] abbreviates: EC1456 1.5 μmol/kg two times a week for two weeks.
[6] abbreviates: EC1456 3 μmol/kg once a week for two weeks.

For the compound `CCCC(=O)OCN(C(=O)[C@@H](NC(=O)[C@H]1CCCCN1C)C(C)CC)[C@H](C[C@@H](OC(C)=O)c1nc(C(=O)N[C@@H](Cc2ccc(O)cc2)C[C@H](C)C(=O)NNC(=O)OCCSSC[C@@H](NC(=O)[C@H](CCC(=O)NC[C@H](O)[C@@H](O)[C@H](O)[C@H](O)CO)NC(=O)[C@@H](CCC(=O)O)NC(=O)[C@H](CCC(=O)NC[C@H](O)[C@@H](O)[C@H](O)[C@H](O)CO)NC(=O)[C@@H](CCC(=O)O)NC(=O)[C@H](CCC(=O)NC[C@H](O)[C@@H](O)[C@H](O)[C@H](O)CO)NC(=O)CC[C@@H](NC(=O)c2ccc(NCc3cnc4nc(N)[nH]c(=O)c4n3)cc2)C(=O)O)C(=O)O)cs1)C(C)C` (stereo in doubt) [EC1456], in experiment [1] (FR+ cells), the “binding to low and high FR expressing cells (FR+)” value is listed as “high competable binding”. Moreover, the “binding to cells that do not express FR (FR−)” value in experiment [1] (FR− cells) is listed as “did not show binding”. For the same compound, the PRs in the experiment with LU1147 NSCLC tumors (setting [3]) and in the experiment on LU1147 NSCLC tumors (setting [4]) was 5 in each case. Besides, the cures in the experiment on LU1147 NSCLC tumors (setting [3]) came out at 2; in the experiment on LU1147 NSCLC tumors (setting [4]), 2; with LU2505 NSCLC tumors (setting [3]) it was 100%; with LU2505 NSCLC tumors (setting [4]), 100%. For the same compound, the animals exhibiting cures in the experiment on ST024 tumors (setting [3]) and in the experiment on ST024 tumors (setting [4]) was 100% throughout. For the same compound, the animal exhibiting cure with ST040 tumors (setting [5]) is on record as 1 animal. The “animals exhibiting PRs” value in the experiment with ST040 tumors (setting [5]) worked out at 3 animals. Further, the “animals exhibiting PR's” value in the experiment with ST040 tumors (setting [6]) is reported as 2 animals. Also, the “animals exhibiting stable disease” value in the experiment on ST040 tumors (setting [6]) worked out at 3 animals. The “efficacy of co-administration of EC1456 and cisplatin” value in experiment [2] (EC1456 2 μmol/kg TIW×2 + cisplatin 3 mg/kg BIW×2) is “enhanced technical effect over both monotherapies”. The “efficacy of EC1456 alone compared to cisplatin” value in experiment [2] (EC1456 2 μmol/kg TIW×2 vs cisplatin 3 mg/kg BIW×2) is listed as “improved efficacy over cisplatin”.
